The values that follow are results of earlier work, collected in patent publication US8758737B2, “Evaporative cooling composition” (priority 2005, dated 2014).

The conditions of this series: stated as a property of the alcohol (evaporative cooling); temperature not given.

For `CCO` [ethyl alcohol], the vapor pressure result is “about 41.0 mmHg”. On to `CC(C)O` [isopropyl alcohol], for which the vapor pressure is listed as 310 mmHg.
